Active and inactive are the calls of the source. No cut-off for these calls is given here. A value given as a limit tells only on which side of the number the result lay.

We go through 18 compounds from ChEMBL document CHEMBL4393731, “Discovery of fused bicyclic derivatives of 1H-pyrrolo[1,2-c]imidazol-1-one as VDR signaling regulators” (Bioorg Med Chem, 2019).

In data set [1] the target is Genome polyprotein (dengue virus type 2) (UniProt P29990). The data set can be described thus: Inhibition of Dengue virus 2 NS2B-NS3 protease.
Data set [2] concerns HeLa. The data set can be described thus: Cytotoxicity against human HeLa cells measured after 24 hrs by MTT assay. It is filed as cell-based.
In data set [3] the target is T1, Vitamin D3 receptor (Homo sapiens) (UniProt P11473).
T1 sequence (whole entry): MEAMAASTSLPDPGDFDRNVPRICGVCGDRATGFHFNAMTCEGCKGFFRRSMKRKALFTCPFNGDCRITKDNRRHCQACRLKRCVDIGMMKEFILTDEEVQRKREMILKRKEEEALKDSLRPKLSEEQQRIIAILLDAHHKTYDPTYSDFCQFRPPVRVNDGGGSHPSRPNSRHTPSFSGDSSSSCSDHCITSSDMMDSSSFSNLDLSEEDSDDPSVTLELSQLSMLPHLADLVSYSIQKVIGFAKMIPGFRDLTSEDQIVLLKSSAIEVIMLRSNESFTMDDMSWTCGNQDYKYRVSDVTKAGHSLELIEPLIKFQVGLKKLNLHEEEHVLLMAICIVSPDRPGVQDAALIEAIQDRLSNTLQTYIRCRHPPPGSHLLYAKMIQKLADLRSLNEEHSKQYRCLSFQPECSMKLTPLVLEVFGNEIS
The experiment in a line: Modulation of VDR (unknown origin) expressed in human HeLa cells assessed as increase in calcitriol-induced response measured after 24 hrs by luciferase reporter assay. It is filed as cell-based.

In data set [4] the target is T1, Vitamin D3 receptor (Homo sapiens). The experiment in a line: Activation of VDR (unknown origin) expressed in human HeLa cells measured after 24 hrs by luciferase reporter assay. It counts as cell-based.
Data set [5] shares this target. The data set can be described thus: Activation of VDR in human HeLa cells assessed as up regulation of phosphorylated p65 expression at 10 uM measured after 24 hrs in the presence of calcitriol by Western blot analysis. It is filed as cell-based.
The target is the same in data set [6]. The data set can be described thus: Modulation of VDR in human HeLa cells assessed as increase in calcitriol-induced upregulation of p62 expression at 10 uM measured after 4 hrs by Western blot analysis. It is filed as cell-based.
The subject of data set [7] is HeLa. The data set can be described thus: Induction of autophagy in human HeLa cells transformed with VDR shRNA assessed as effect on p62 expression at 10 uM measured after 4 hrs by Western blot analysis. It counts as functional, cell-based.
For data set [8], the system named is HeLa. The experiment in a line: Induction of autophagy in human HeLa cells transformed with VDR shRNA assessed as effect on p62 expression at 10 uM measured after 4 hrs in presence of calcitriol by Western blot analysis. It counts as functional, cell-based.
The subject of data set [9] is HeLa. The experiment in a line: Induction of autophagy in human HeLa cells transformed with VDR shRNA assessed as up regulation of LC3-1 expression at 10 uM measured after 4 hrs in presence of calcitriol by Western blot analysis. It is filed as functional, cell-based.
Data set [10] has as its system HeLa. The data set can be described thus: Induction of autophagy in human HeLa cells assessed as calcitriol-induced up regulation of LC3-1 expression at 10 uM measured after 4 hrs by Western blot analysis. It is filed as functional, cell-based.
The target of data set [11] is T1, Vitamin D3 receptor (Homo sapiens). The experiment in a line: Modulation of VDR in human HeLa cells assessed as increase in calcitriol-induced LC3-2 to LC3-1 ratio at 10 uM measured after 4 hrs by Western blot analysis. It counts as cell-based.
For data set [12] the target is unchanged. The experiment in a line: Modulation of VDR in human HeLa cells assessed as increase in calcitriol-induced upregulation of LC3-2 expression at 10 uM measured after 4 hrs by Western blot analysis. It is filed as cell-based.
Data set [13] shares this target. The data set can be described thus: Modulation of VDR in human HeLa cells assessed as down regulation of p65 expression at 10 uM measured after 24 hrs in the presence of calcitriol by Western blot analysis. It counts as cell-based.
Data set [14] deals with HeLa. The data set can be described thus: Up regulation of VDR expression in human HeLa cells at 10 uM measured after 4 hrs in presence of VDR shRNA by Western blot analysis. It counts as functional, cell-based.
In data set [15] the test system is HeLa. The data set can be described thus: Induction of autophagy in human HeLa cells transformed with VDR shRNA assessed as up regulation of LC3-2 expression at 10 uM measured after 4 hrs in presence of calcitriol by western blot analysis. It counts as functional, cell-based.
For data set [16], the target named is T1, Vitamin D3 receptor (Homo sapiens). The experiment in a line: Modulation of VDR (unknown origin) expressed in human HeLa cells assessed as increase in calcitriol-induced response at 10 uM measured after 24 hrs by luciferase reporter assay relative to control. It counts as cell-based.
In data set [17] the test system is HeLa. The data set can be described thus: Induction of autophagy in human HeLa cells transformed with shRNA against VDR assessed as downregulation of LC3-2 expression at 10 uM measured after 4 hrs. It counts as functional, cell-based.

For the compound `O=C1[C@@H]2CCCN2[C@@H](c2ccc([N+](=O)[O-])cc2)N1c1ccc([N+](=O)[O-])cc1`, in [1], the “Inhibition (active/not active)” value was “Active”. Besides, the CC10 with HeLa [2] is above 10 µM. Also, the Activity result in data set [3] was “Dose-dependent effect”. Also, the outcome in data set [4] was inactive.

Take `O=C1[C@@H]2CCCN2[C@@H](c2ccc(O)cc2)N1c1ccc([N+](=O)[O-])cc1`: the “Inhibition (active/not active)” value in data set [1] is “inactive”. Further, in the data set with HeLa [2], the CC10 was above 10 µM. For the same compound, in [3], the Activity entry was “Dose-dependent effect”. Also, the result in data set [4] was inactive.

With `O=C1[C@@H]2CCCN2[C@@H](c2cccs2)N1c1ccc([N+](=O)[O-])cc1`, in [1], the “Inhibition (active/not active)” value is “inactive”. This compound yielded a CC10 with HeLa [2] above 10 µM. The result in [3] and in data set [4] was inactive.

With `O=C1[C@@H]2CCCN2[C@@H](c2ccccc2[N+](=O)[O-])N1c1ccc([N+](=O)[O-])cc1`, the “Inhibition (active/not active)” value in [1] is “inactive”. Besides, the CC10 in the data set with HeLa [2] is above 10 µM. In addition, the outcome in data set [3] and in [4] was inactive.

For `CC(C)c1ccc([C@H]2N(c3ccc([N+](=O)[O-])cc3)C(=O)[C@@H]3CCCN32)cc1`, the “Inhibition (active/not active)” value in [1] is “Active”. In the data set on HeLa [2], the CC10 was above 10 µM. Besides, the outcome in [3] and in data set [4] was inactive.

As to `O=C1[C@@H]2CCCN2[C@@H](c2ccc(Cl)cc2)N1c1ccc([N+](=O)[O-])cc1`, the “Inhibition (active/not active)” value in data set [1] was “Active”. In the data set with HeLa [2], the CC10 was above 10 µM. For the same compound, the outcome in data set [3] and in [4] was inactive.

As to `O=C1[C@@H]2CCCN2[C@@H](CCC[C@H]2N(c3ccc([N+](=O)[O-])cc3)C(=O)[C@@H]3CCCN32)N1c1ccc([N+](=O)[O-])cc1`, the “Inhibition (active/not active)” value in data set [1] was “inactive”. For the same compound, the CC10 in the data set with HeLa [2] was above 10 µM. Moreover, the result in data set [3] and in data set [4] was inactive.

Regarding `O=C1[C@@H]2CCCN2[C@@H](Cc2ccccc2)N1c1ccc([N+](=O)[O-])cc1`, the “Inhibition (active/not active)” value in [1] is “Active”. This compound displayed a CC10 in the data set with HeLa [2] above 10 µM. In addition, the result in data set [3] and in data set [4] was inactive.

Take `CSCC[C@H](NC(=O)OC(C)(C)C)C(=O)Nc1ccc([C@H]2N(c3ccc([N+](=O)[O-])cc3)C(=O)[C@@H]3CCCN32)cc1`: the result (in data set [5]; in [6]; in the data set on HeLa [9]; with HeLa [10]; in [11]; in [12]) was Active. The outcome (in [13]; in the data set on HeLa [14]; in the data set with HeLa [15]) was Active. The result (in the data set on HeLa [7]; in the data set on HeLa [8]; in [4]) was inactive. The “Inhibition (active/not active)” value in [1] is “inactive”. The compound also had a CC10 in the data set on HeLa [2] above 10 µM. Also, in data set [3], the Activity result was “Dose-dependent effect”.

`O=C1[C@@H]2CCCN2[C@@H](c2ccccc2)N1c1ccc([N+](=O)[O-])cc1`: the “Inhibition (active/not active)” value in [1] was “Active”. In the data set on HeLa [2], this compound registered a CC10 above 10 µM. Further, the result in [3] and in data set [4] was inactive.

Consider `COc1ccc([C@H]2N(c3ccc([N+](=O)[O-])cc3)C(=O)[C@@H]3CCCN32)cc1`, for which, in data set [1], the “Inhibition (active/not active)” value is “Active”. Moreover, in the data set on HeLa [2], the CC10 was above 10 µM. The outcome in data set [3] and in data set [4] was inactive.

For the compound `O=C1[C@@H]2CCCN2[C@@H](c2ccco2)N1c1ccc([N+](=O)[O-])cc1`, the outcome (in data set [5]; in data set [6]; with HeLa [9]; in the data set with HeLa [10]; in [12]; in data set [13]) was Active. Further, in the data set on HeLa [15], the result was Active. Further, the result (in the data set on HeLa [7]; in the data set with HeLa [8]; in [4]; in the data set with HeLa [14]) was inactive. The “Inhibition (active/not active)” value in data set [1] is “inactive”. For the same compound, the CC10 with HeLa [2] was above 10 µM. Further, the Activity result in data set [3] is “Dose-dependent effect”.

For the compound `O=C1[C@@H]2CCCN2[C@@H](c2cccc([N+](=O)[O-])c2)N1c1ccc([N+](=O)[O-])cc1`, in [1], the “Inhibition (active/not active)” value is “Active”. In the data set on HeLa [2], this compound yielded a CC10 above 10 µM. The result in [3] and in [4] was inactive.

For the compound `O=C1[C@@H]2CCCN2[C@@H](c2ccc(C(F)(F)F)cc2)N1c1ccc([N+](=O)[O-])cc1`, the “Inhibition (active/not active)” value in data set [1] is “Active”. For the same compound, in the data set with HeLa [2], the CC10 was above 10 µM. Moreover, the outcome in [3] and in data set [4] was inactive.

On to `O=C1[C@@H]2CCCN2[C@@H](Cc2ccc([N+](=O)[O-])cc2)N1c1ccc([N+](=O)[O-])cc1`, for which the “Inhibition (active/not active)” value in [1] is “Active”. The compound further had a CC10 in the data set on HeLa [2] above 10 µM. In addition, the outcome in data set [3] and in [4] was inactive.

For the compound `COc1ccc(C[C@H]2N(c3ccc([N+](=O)[O-])cc3)C(=O)[C@@H]3CCCN32)cc1OC`, the outcome (in data set [5]; in data set [6]; in the data set with HeLa [9]; in data set [11]; in data set [12]; in the data set on HeLa [17]) was Active. For the same compound, the result (in [13]; in the data set with HeLa [14]) was Active. Besides, the fold change (FC) in [16] lay within 2.5 to 3. For the same compound, the outcome (with HeLa [7]; with HeLa [8]; in the data set with HeLa [10]; in [4]) was inactive. For the same compound, the “Inhibition (active/not active)” value in [1] was “inactive”. The compound also registered a CC10 in the data set with HeLa [2] above 10 µM. For the same compound, the Activity result in data set [3] is “Dose-dependent effect”.

Take `COc1cc([C@H]2N(c3ccc([N+](=O)[O-])cc3)C(=O)[C@@H]3CCCN32)ccc1O`: the outcome (in [5]; in data set [6]; with HeLa [9]; with HeLa [10]; in data set [12]; in data set [13]) was Active. For the same compound, in the data set with HeLa [15], the outcome was Active. Further, the result (in the data set on HeLa [7]; with HeLa [8]; in [4]; in the data set on HeLa [14]) was inactive. In [1], the “Inhibition (active/not active)” value is “inactive”. This compound registered a CC10 with HeLa [2] above 10 µM. The Activity entry in data set [3] was “Dose-dependent effect”.

As to `O=C1[C@@H]2CCCN2[C@@H](c2ccc([C@H]3N(c4ccc([N+](=O)[O-])cc4)C(=O)[C@@H]4CCCN43)cc2)N1c1ccc([N+](=O)[O-])cc1`, in data set [1], the “Inhibition (active/not active)” value is “inactive”. In the data set on HeLa [2], the CC10 was above 10 µM. In addition, the result in [3] and in data set [4] was inactive.
